How the values were obtained:
AMPA receptor [1] = assay: Patch clamp electrophysiology assay (glutamate-induced whole-cell current in cultured cortical neurons); format: cell-based; conditions: Concentration at which glutamate induced current is increased by 100%; 500 μM glutamate, rat cortical neurons
Experimental: Cortical cells were prepared from day 18-19 embryonic Sprague-Dawley rats and recorded after 3 days in culture. The extracellular solution (ECS) contained (in mM): NaCl (145), KCl (5.4), HEPES (10), MgCl2 (0.8), CaCl2 (1.8), glucose (10), sucrose (30); pH. 7.4. In order to block the voltage-gated sodium currents, 40 nM TTX was added to the recording solution. The intracellular solution contained (in mM): K-gluconate (140), HEPES (20), EGTA (1.1), phosphocreatine (5), MgATP (3), GTP (0.3), MgCl2 (5), and CaCl2 (0.1); pH: 7.2. All test compound and glutamate solutions were made-up in the extracellular solution.
The whole-cell current was measured with patch-clamp amplifier (Axopatch 200B), filtered at 2 kHz, digitized at 5 kHz and recorded on a PC with pClamp 8. The cells were voltage-clamped at −80 mV. Solutions were applied by DAD-12 system. A baseline response for each cell was recorded using a I s pulse of 500 μM glutamate dissolved in ECS. Responses to test compound were then determined by application of a 10 s pulse of test compound followed by a 1 s pulse of the same concentration of test compound plus 500 μM glutamate and then 10 s of saline. This pulse sequence was repeated until a stable reading was obtained, or until sufficient data points were measured to allow extrapolation to a calculated maximum change.
The mean value of plateau current between 600 ms to 900 ms after application of glutamate or test compound plus glutamate was calculated and used as the parameter to measure the drug effect. The plateau responses in the presence of varying concentrations of test compound were divided by the baseline response in order to calculate the percentage increase. Compounds are deemed active in this test if, at a test concentration of 3 μM or less, they produce a greater than 100% increase in the value of the steady-state current measured due to application of glutamate alone. The concentration at which the glutamate induced current is increased by 100% is commonly referred to as the EC2x value.

AMPA receptors = assay: Rat hippocampal slice assay (field EPSP in CA1); format: cell-based
Experimental: (§1) In another test, excitatory responses (field EPSPs) were measured in hippocampal slices, which were maintained in a recording chamber continuously perfused with artificial cerebrospinal fluid (ACSF). During a 15-30 minute interval, the perfusion medium was switched to one containing various concentrations of the test compounds. Responses collected immediately before and at the end of drug perfusion were superimposed in order to calculate the percent increase in EPSP amplitude.
The field EPSP (excitatory post-synaptic potential) recorded in field CA1 after stimulation of CA3 axons is known to be mediated by AMPA receptors, which are present in the synapses (Kessler et al., Brain Res. 560: 337-341 (1991)). Drugs that selectively block the receptor selectively block the field EPSP (Muller et al., Science, supra). […] These effects are mirrored in the field EPSP (see, for example, Staubli et al., Psychobiology, supra; Xiao et al., Hippocampus, supra; Staubli et al., Hippocampus 2: 4958 (1992)).
To obtain data for the activity of invention compounds on synaptic responses, a bipolar nichrome stimulating electrode was positioned in the dendritic layer (stratum radiatum) of the hippocampal subfield CA1 close to the border of subfield CA3, as described in Example 30. Current pulses (0.1 msec) through the stimulating electrode activate a population of the Schaffer-commissural (SC) fibers, which arise from neurons in the subdivision CA3 and terminate in synapses on the dendrites of CA1 neurons. Activation of these synapses causes them to release the transmitter glutamate. Glutamate binds to post-synaptic AMPA receptors, which then transiently open an associated ion channel and permit a sodium current to enter the postsynaptic cell. This current results in a voltage in the extracellular space (the field EPSP), which is recorded by a high impedance recording electrode positioned in the middle of the stratum radiatum of CA1.
The intensity of the stimulation current was adjusted to produce half-maximal EPSPs (typically about 1.5-2.0 mV). Paired stimulation pulses were given every 40 sec with an interpulse interval of 200 msec, as described further in Example 30.
as §1, with “Hippocampal slices” for “In another test, excitatory responses (field EPSPs) were measured in hippocampal slices, which”, “During” for “During a”, “intervals,” for “interval,”

AMPA receptor [2] = assay: In vivo electrophysiology (field EPSP in dentate gyrus of anesthetized animals); design: species or system rat
Experimental: The physiological effects of invention compounds were tested in vivo in anesthetized animals according to the following procedures.
Animals are maintained under anesthesia by phenobarbital administered using a Hamilton syringe pump. Stimulating and recording electrodes are inserted into the perforant path and dentate gyrus of the hippocampus, respectively. Once electrodes are implanted, a stable baseline of evoked responses are elicited using single monophasic pulses (100 μs pulse duration) delivered at 3/min to the stimulating electrode. Field EPSPs are monitored until a stable baseline is achieved (about 20-30 min), after which a solution of test compound in HPCD is injected intraperitoneally and evoked field potentials are recorded. Evoked potentials are recorded for approximately 2 h following drug administration or until the amplitude of the field EPSP returns to baseline. In the latter instance, it is common that an iv administration is also carried out with an appropriate dose of the same test compound.

With O=C1c2cc3nnn(CCc4cccc(F)c4)c(=O)c3cc2OC2CCCN12 (stereo not drawn) [Example 1, 3-[2-(3-Fluorophenyl)ethyl]-6a,7,8,9-tetrahydro-3H-pyrrolo[2′,1′:2,3][1,3]oxazino[6,5-g][1,2,3]benzotriazine-4,11-dione] the “In vitro Patch Clamp Electrophysiology EC2x” value (AMPA receptor [1]) was 3 nM, the “% Increase in the amplitude of the field EPSP in the CA1 region of rat hippocampal slice” value (shortened to “% Increase … of rat hippocampal slice”) (AMPA receptors; @ 3 μM) was 9% @ 3 μM and the “% increase in the amplitude of the field EPSP in rat dentate gyrus” value (“% increase … in rat dentate gyrus” for short) (AMPA receptor [2]; 5 mpk i.p.) was 24%^3.

In the case of O=C1c2cc3nnn(C4CC4)c(=O)c3cc2OC2CCCN12 (stereo not drawn) [Example 4, 3-Cyclopropyl-6a,7,8,9-tetrahydro-3H-pyrrolo[2′,1′:2,3][1,3]oxazino[6,5-g][1,2,3]benzotriazine-4,11-dione], the “In vitro Patch Clamp Electrophysiology EC2x” value (AMPA receptor [1]) is reported as 400 nM, the “% Increase … of rat hippocampal slice” value (AMPA receptors; @ 3 μM) is reported as 5% @ 3 μM and the “% increase … in rat dentate gyrus” value (AMPA receptor [2]; 5 mpk i.v.) is reported as 19%^4.

For C#CCn1nnc2cc3c(cc2c1=O)OC1CCCN1C3=O (stereo not drawn) [Example 9, 3-Prop-2-yn-1-yl-6a,7,8,9-tetrahydro-3H-pyrrolo[2′,1′:2,3][1,3]oxazino[6,5-g][1,2,3]benzotriazine4,11-dione], the “In vitro Patch Clamp Electrophysiology EC2x” value (AMPA receptor [1]) was 140 nM, the “% Increase … of rat hippocampal slice” value (AMPA receptors; @ 3 μM) was 11% @ 3 μM and the “% increase … in rat dentate gyrus” value (AMPA receptor [2]; 5 mpk i.v.) was 11%^4.

For N#CCn1nnc2cc3c(cc2c1=O)OC1CCCN1C3=O (stereo not drawn) [Example 10, (4,11-Dioxo-4,6a,7,8,9,11-hexahydro-3H-pyrrolo[2′,1′:2,3][1,3]oxazino[6,5-g][1,2,3]benzotriazin-3-yl)acetonitrile], the “In vitro Patch Clamp Electrophysiology EC2x” value (AMPA receptor [1]) was 190 nM, the “% Increase … of rat hippocampal slice” value (AMPA receptors; @ 10 μM) was 10% @ 10 μM and the “% increase … in rat dentate gyrus” value (AMPA receptor [2]; 5 mpk i.p.) was 12%^3.

In the case of C#C[C@H](Cc1cc(F)cc(F)c1)n1nnc2cc3c(cc2c1=O)O[C@@H]1CCCN1C3=O [Example 16, (6aR)-3-[(2S)-1-(3,5-Difluorophenyl)but-3-yn-2-yl]-6a,7,8,9-tetrahydro-3H-pyrrolo[2′,1′:2,3][1,3]oxazino[6,5-g][1,2,3]benzotriazine-4,11-dione], the “In vitro Patch Clamp Electrophysiology EC2x” value (AMPA receptor [1]) is reported as 3 nM, the “% Increase … of rat hippocampal slice” value (AMPA receptors; @ 3 μM) is reported as 1% @ 3 μM and the “% increase … in rat dentate gyrus” value (AMPA receptor [2]; 5 mpk i.p.) is reported as 34%^3.

In the case of C[C@H](CSC#N)n1nnc2cc3c(cc2c1=O)OC1CCCN1C3=O (stereo partly drawn) [Example 35, (2R)-2-(4,11-Dioxo-4,6a,7,8.9,11-hexahydro-3H-pyrrolo[2′,1′:2,3][1,3]oxazino[6,5-g][1,2,3]benzotriazin-3-yl)propyl thiocyanate], the “In vitro Patch Clamp Electrophysiology EC2x” value (AMPA receptor [1]) is reported as 80 nM and the “% increase … in rat dentate gyrus” value (AMPA receptor [2]; 5 mpk i.p.) is reported as 19%^3.

In the case of O=C1c2cc3nnn(CCn4cccn4)c(=O)c3cc2OC2CCCN12 (stereo not drawn) [Example 36, 3-[2-(1H-Pyrazol-1-yl)ethyl]-6a,7,8,9-tetrahydro-3H-pyrrolo[2′,1′:2,3][1,3]oxazino[6,5-g][1,2,3]benzotriazine-4,11-dione], the “In vitro Patch Clamp Electrophysiology EC2x” value (AMPA receptor [1]) is reported as 100 nM, the “% Increase … of rat hippocampal slice” value (AMPA receptors; @ 3 μM) is reported as 12% @ 3 μM and the “% increase … in rat dentate gyrus” value (AMPA receptor [2]; 5 mpk i.v.) is reported as 18%^4.

In the case of C[C@H](Cn1ncnn1)n1nnc2cc3c(cc2c1=O)OC1CCCN1C3=O (stereo partly drawn) [Example 37A, 3-[(2R)-1-(2H-Tetrazol-2-yl)propan-2-yl]-6a,7,8,9-tetrahydro-3H-pyrrolo[2′,1′:2,3][1,3]oxazino[6,5-g][1,2,3]benzotriazine-4,11-dione], the “In vitro Patch Clamp Electrophysiology EC2x” value (AMPA receptor [1]) is reported as 40 nM and the “% increase … in rat dentate gyrus” value (AMPA receptor [2]; 5 mpk i.p.) is reported as 39%^3.

For C[C@H](Cn1ncnn1)n1nnc2cc3c(cc2c1=O)OC1COCCN1C3=O (stereo partly drawn) [Example 64, 3-[(2R)-1-(2H-Tetrazol-2-yl)propan-2-yl]-6a,7,9,10-tetrahydro-3H-[1,4]oxazino[3′,4′:2,3][1,3]oxazino[6,5-g][1,2,3]benzotriazine-4,12-dione], the “In vitro Patch Clamp Electrophysiology EC2x” value (AMPA receptor [1]) was 170 nM and the “% increase … in rat dentate gyrus” value (AMPA receptor [2]; 5 mpk i.p.) was 30%^3.

— patent US20100041647A1, “3-Substituted-[1,2,3]-Benzotriazinone compounds for enhancing glutamatergic synaptic responses” (CORTEX PHARMACEUTICALS, INC., priority 2007, published 2010)
